Measured values from ChEMBL document CHEMBL1145722, “Triterpene saponins from Cyclamen mirabile and their biological activities” (1997).
Values after ≈ are worked out from the molar mass of the structure shown.

Tests used:
Type in all cases: functional
Staphylococcus aureus = experiment: Antibacterial activity against Staphylococcus aureus ATCC 29213 by microtiter-tube dilution method
Enterococcus faecalis = experiment: Antibacterial activity against Enterococcus faecalis ATCC 29212 by microtiter-tube dilution method
Escherichia coli = experiment: Antibacterial activity against Escherichia coli ATCC 25922 by microtiter-tube dilution method
Pseudomonas aeruginosa = experiment: Antibacterial activity against Pseudomonas aeruginosa ATCC 27853 by microtiter-tube dilution method
Candida albicans [1] = experiment: Antifungal activity against Candida albicans by microtiter-tube dilution method
Pichia kudriavzevii = experiment: Antifungal activity against Candida krusei by microtiter-tube dilution method
Candida parapsilosis = experiment: Antifungal activity against Candida parapsilosis by microtiter-tube dilution method; settings: Lodderomyces parapsilosis
Kluyveromyces marxianus = experiment: Antifungal activity against Candida pseudotropicalis by microtiter-tube dilution method
Candida albicans [2] = experiment: Antifungal activity against Candida stellatoidea by microtiter-tube dilution method
Candida tropicalis = experiment: Antifungal activity against Candida tropicalis by microtiter-tube dilution method
Cryptococcus neoformans = experiment: Antifungal activity against Cryptococcus neoformans by microtiter-tube dilution method
[3] = Uterocontractile activity in rat uterus assessed as contraction at 7.4 uM relative to acetylcholine
[4] = Uterocontractile activity in rat uterus assessed as contraction at 8.6 uM relative to acetylcholine
[5] = Uterocontractile activity in rat uterus assessed as contraction at 6.5 uM relative to acetylcholine
[6] = Uterocontractile activity in rat uterus assessed as contraction at 7.5 uM relative to acetylcholine
[7] = Uterocontractile activity in rat uterus assessed as contraction at 20 uM relative to acetylcholine
[8] = Uterocontractile activity in rat uterus assessed as contraction at 6.4 uM relative to acetylcholine
[9] = Uterocontractile activity in rat uterus assessed as contraction at 19 uM relative to acetylcholine

Row | SMILES | MIC (Staphylococcus aureus) [µg/mL] | MIC (Enterococcus faecalis) [µg/mL] | MIC (Escherichia coli) [µg/mL] | MIC (Pseudomonas aeruginosa) [µg/mL] | MIC (Candida albicans [1]) [µg/mL] | MIC (Pichia kudriavzevii) [µg/mL] | MIC (Candida parapsilosis) [µg/mL] | MIC (Kluyveromyces marxianus) [µg/mL] | MIC (Candida albicans [2]) [µg/mL] | MIC (Candida tropicalis) [µg/mL] | MIC (Cryptococcus neoformans) [µg/mL] | Activity [3] [%] | Activity [4] [%] | Activity [5] [%] | Activity [6] [%] | Activity [7] [%] | Activity [8] [%] | Activity [9] [%]
1 | C[C@]1(C=O)CC[C@]23CO[C@@]4(CC[C@@H]5[C@@]6(C)CC[C@H](O[C@@H]7OC[C@H](O[C@@H]8O[C@H](CO)[C@@H](O)[C@H](O)[C@H]8O[C@@H]8OC[C@H](O)[C@H](O)[C@H]8O)[C@H](O)[C@H]7O[C@@H]7O[C@H](CO)[C@@H](O)[C@H](O)[C@H]7O)[C@@](C)(CO)[C@@H]6CC[C@@]5(C)[C@]4(C)C[C@H]2O)[C@@H]3C1 [CYCLACOUMIN] | > 400 | > 400 | > 400 | > 400 | 160 (≈ 149 µM) | > 320 | 80 (≈ 74.3 µM) | 160 (≈ 149 µM) | 160 (≈ 149 µM) | 160 (≈ 149 µM) | 80 (≈ 74.3 µM) | 58.2 |  |  |  |  |  | 
2 | CC1(C)[C@@H](O[C@@H]2OC[C@H](O[C@@H]3O[C@H](CO)[C@@H](O)[C@H](O)[C@H]3O)[C@H](O)[C@H]2O[C@@H]2O[C@H](CO)[C@@H](O)[C@H](O)[C@H]2O)CC[C@]2(C)[C@H]3CC[C@]45OC[C@@]6(CC[C@](C)(C=O)C[C@H]64)[C@H](O)C[C@@]5(C)[C@]3(C)CC[C@@H]12 [CYCLAMINORIN] | > 400 | > 400 | > 400 | > 400 | 160 (≈ 172 µM) | > 320 | 80 (≈ 86.1 µM) | 160 (≈ 172 µM) | 160 (≈ 172 µM) | 160 (≈ 172 µM) | 80 (≈ 86.1 µM) |  | 46.2 |  |  |  |  | 
3 | CC1(C)[C@@H](O[C@@H]2OC[C@H](O[C@@H]3O[C@H](CO)[C@@H](O)[C@H](O[C@@H]4O[C@H](CO)[C@@H](O)[C@H](O)[C@H]4O)[C@H]3O[C@@H]3OC[C@@H](O)[C@H](O)[C@H]3O)[C@H](O)[C@H]2O[C@@H]2O[C@H](CO)[C@@H](O)[C@H](O)[C@H]2O)CC[C@]2(C)[C@H]3CC[C@]45OC[C@@]6(CC[C@](C)(C=O)C[C@H]64)[C@H](O)C[C@@]5(C)[C@]3(C)CC[C@@H]12 [CYCLAMIN] | > 400 | > 400 | > 400 | > 400 |  |  |  |  |  |  |  |  |  | 48.4 |  |  |  | 
4 | CC1(C)[C@@H](O[C@@H]2OC[C@H](O[C@@H]3O[C@H](CO)[C@@H](O)[C@H](O)[C@H]3O[C@@H]3OC[C@H](O)[C@H](O)[C@H]3O)[C@H](O)[C@H]2O[C@@H]2O[C@H](CO)[C@@H](O)[C@H](O)[C@H]2O)CC[C@]2(C)[C@H]3CC[C@]45OC[C@@]6(CC[C@](C)(C=O)C[C@H]64)[C@H](O)C[C@@]5(C)[C@]3(C)CC[C@@H]12 [DEGLUCOCYCLAMIN] | > 400 | > 400 | > 400 | > 400 | 160 (≈ 151 µM) | > 320 | 80 (≈ 75.4 µM) | 160 (≈ 151 µM) | 160 (≈ 151 µM) | 160 (≈ 151 µM) | 80 (≈ 75.4 µM) |  |  |  | 36.7 |  |  | 
5 | CC1(C)[C@@H](O[C@@H]2OC[C@H](O[C@@H]3O[C@H](CO[C@@H]4O[C@H](CO)[C@@H](O)[C@H](O)[C@H]4O)[C@@H](O)[C@H](O)[C@H]3O[C@@H]3OC[C@H](O)[C@H](O)[C@H]3O)[C@H](O)[C@H]2O[C@@H]2O[C@H](CO)[C@@H](O)[C@H](O)[C@H]2O)CC[C@]2(C)[C@H]3CC[C@]45OC[C@@]6(CC[C@](C)(C=O)C[C@H]64)[C@H](O)C[C@@]5(C)[C@]3(C)CC[C@@H]12 [ISOCYCLAMIN] | > 400 | > 400 | > 400 | > 400 |  |  |  |  |  |  |  |  |  | 0.1 |  | 28.3 |  | 
6 | CC1(C)[C@@H](O[C@@H]2OC[C@H](O[C@@H]3O[C@H](CO[C@@H]4O[C@H](CO)[C@@H](O)[C@H](O)[C@H]4O)[C@@H](O)[C@H](O)[C@H]3O[C@@H]3OC[C@H](O)[C@H](O)[C@H]3O)[C@H](O)[C@H]2O[C@@H]2O[C@H](CO)[C@@H](O)[C@H](O)[C@H]2O)CC[C@]2(C)[C@H]3CC=C4[C@@H]5C[C@]6(C)CC[C@]5(COC6=O)[C@H](O)C[C@@]4(C)[C@]3(C)CC[C@@H]12 [MIRABILIN LACTONE] | > 400 | > 400 | > 400 | > 400 |  |  |  |  |  |  |  |  |  | 0.6 |  | 5.7 |  | 
7 | CC1(C)[C@@H](O[C@@H]2OC[C@H](O[C@@H]3O[C@H](CO[C@@H]4O[C@H](CO)[C@@H](O)[C@H](O)[C@H]4O)[C@@H](O)[C@H](O)[C@H]3O[C@@H]3OC[C@H](O)[C@H](O)[C@H]3O)[C@H](O)[C@H]2O[C@@H]2O[C@H](CO)[C@@H](O)[C@H](O)[C@H]2O)CC[C@]2(C)[C@H]3CC=C4[C@@H]5C[C@@](C)(C(=O)O)CC[C@]5(CO)[C@H](O)C[C@@]4(C)[C@]3(C)CC[C@@H]12 [MIRABILIN] | > 400 | > 400 | > 400 | > 400 |  |  |  |  |  |  |  |  |  |  |  |  | 0.7 | 1.1
